Assay results reported in US12351656B2, “Functionalized and crosslinked polymers” (PMIDG, LLC, priority 2017, dated 2025).
Structures can show the parent of a compound that is named as a salt.

Assays:
[1] = Bupivacaine release from FeCl3-crosslinked gels (HPLC); format: physicochemical; conditions: FeCl3-crosslinked 4% (w/v) gel with bupivacaine hydrochloride monohydrate, 2% SDS in PBS pH 7.4, 37° C.
Procedure: Sodium hyaluronate (1.4 m3/kg, approx. 800 kDa) and HA derivatives comprising mercaptosuccinic acid and thiophenol, as described in Example 60 and 61, were diluted to 4% (w/v) concentrations in deionized water and mixed with bupivacaine hydrochloride monohydrate (Sigma Aldrich B5274). The polymers were crosslinked using the addition of 2% FeCl3 solution in deionized water for 1:1 linking of carboxyl groups of sodium hyaluronate and chloride of FeCl3 and pH of the gels was adjusted to 6.5-7.5 using 0.25M NaOH solution. The release study buffer applied to each sample consisted of 2% (w/v) sodium dodecyl sulfate (SDS) dissolved in Phosphate buffered saline (pH 7.4, Sigma P3813). All samples were incubated at 37° C. and sampled for testing over 96 hours. For each timepoint, 0.25 ml of the sample was combined with 5 ml MeOH and then filtered through a 0.45 μm filter prior to analyzing using HPLC with a C18 column and 30:70 phosphate buffer (pH 5.0):methanol as mobile phase at 0.6 ml/min flow rate. The chromatogram was collected using a photodiode array detector at 205 nm and the amount of bupivacaine released was calculated from integral value of peak at the retention time of 7.1 minutes based on calibration performed previously.

[2] = Vancomycin hydrochloride release from FeCl3-crosslinked gels (HPLC); format: physicochemical; conditions: FeCl3-crosslinked 4% (w/v) gel, vancomycin hydrochloride 10% (w/w), PBS pH 7.4, 37° C.
Procedure: Sodium hyaluronate (1.4 m3/kg, approx. 800 kDa) and HA derivatives comprising mercaptosuccinic acid and thiophenol, as described in Example 59 and 60 were diluted to 4% (w/v) concentrations in deionized water and mixed with vancomycin hydrochloride (Sigma Aldrich PHR1732) at 10% (w/w) loading. The polymers were crosslinked using the addition of 2% FeCl3 solution (crosslinking agent) in deionized water for 1:1 linking of carboxyl groups of sodium hyaluronate and chloride of FeCl3 and pH of the gels was adjusted to 6.5-7.5 using 0.25M NaOH solution. The release study buffer applied to each sample consisted of phosphate buffered saline (pH 7.4, Sigma P3813). […] For each timepoint, 0.25 ml of the sample was combined with 5 ml H2O and then filtered through a 0.45 μm filter prior to analyzing using HPLC with a C18 column and 85:15 phosphate buffer (pH 3.0):methanol as mobile phase at 0.8 ml/min flow rate. The chromatogram was collected using a photodiode array detector at 205 nm and the amount of vancomycin hydrochloride released was calculated from integral value of peak at the retention time of 11.3 minutes based on calibration performed previously.

Row | % Bupivacaine Released ([1]; 0 hours) [%] | % Bupivacaine Released ([1]; 1 hour) [%] | % Bupivacaine Released ([1]; 3 hours) [%] | % Bupivacaine Released ([1]; 6 hours) [%] | % Bupivacaine Released ([1]; 24 hours) [%] | Structure (SMILES) | % Vancomycin Hydrochloride Release ([2]; 0 hours) [%] | % Vancomycin Hydrochloride Release ([2]; 1 hour) [%] | % Vancomycin Hydrochloride Release ([2]; 3 hours) [%] | % Vancomycin Hydrochloride Release ([2]; 6 hours) [%] | % Vancomycin Hydrochloride Release ([2]; 24 hours) [%] | % Vancomycin Hydrochloride Release ([2]; 96 hours) [%]
1 | 0.00 | 72.54 | 70.10 | 71.43 | 83.46 | CCCCN1CCCCC1C(=O)Nc1c(C)cccc1C (centres unmarked) [Bupivacaine, bupivacaine hydrochloride monohydrate] | – | – | – | – | – | –
2 | – | – | – | – | – | CN[C@H](CC(C)C)C(=O)N[C@H]1C(=O)N[C@@H](CC(N)=O)C(=O)N[C@H]2C(=O)N[C@H]3C(=O)N[C@H](C(=O)N[C@H](C(=O)O)c4cc(O)cc(O)c4-c4cc3ccc4O)[C@H](O)c3ccc(c(Cl)c3)Oc3cc2cc(c3O[C@@H]2O[C@H](CO)[C@@H](O)[C@H](O)[C@H]2O[C@H]2C[C@](C)(N)[C@H](O)[C@H](C)O2)Oc2ccc(cc2Cl)[C@H]1O [Vancomycin, vancomycin hydrochloride] | 0.00 | 98.03 | 95.40 | 92.08 | 90.70 | 72.11
